Test results from ChEMBL document CHEMBL1201862, “PubChem BioAssay data set” (2004).
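The compound was tested at five concentrations on cells cultured in 96-well plates, with a 48-hour exposure period. Here, GI50 denotes the concentration required for 50% inhibition of growth.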 The source made the active and inactive calls. Cut-off read from the data, not from the text of the source: active = GI50 up to about 1.1 µM and inactive = higher.

Legend:
Assay in all cases: NCI anticancer screen, dose series, 48 h
[1] = system: MDA-MB-435
[2] = system: SR
[3] = system: HCT-15
[4] = system: SF-295
[5] = system: NCI-H522
[6] = system: HCT-116
[7] = system: UO-31
[8] = system: HOP-62
[9] = system: T47D
[10] = system: KM12
[11] = system: MDA-MB-231
[12] = system: ACHN
[13] = system: RPMI-8226
[14] = system: K562
[15] = system: SK-MEL-5
[16] = system: PC-3
[17] = system: U-251
[18] = system: CAKI-1
[19] = system: TK-10
[20] = system: SNB-78

Row | SMILES | GI50 [1] | GI50 [2] | GI50 [3] [µM] | GI50 [4] | GI50 [5] | GI50 [6] | GI50 [7] | GI50 [8] | GI50 [9] | GI50 [10] | GI50 [11] | GI50 [12] | GI50 [13] | GI50 [14] | GI50 [15] | GI50 [16] | GI50 [17] | GI50 [18] | GI50 [19] | GI50 [20]
1 | O=C1c2ccccc2-n2c1nc1cc(Cl)ccc1c2=O | 2.02 µM (inactive) | 6.62 µM (inactive) | 21.2 | 50.7 µM (inactive) | 29.9 µM (inactive) | > 100 µM (inactive) | > 100 µM (inactive) | 81.7 µM (inactive) | 0.807 µM (active) | 39.9 µM (inactive) | > 100 µM (inactive) | > 100 µM (inactive) | 5.04 µM (inactive) | 4.05 µM (inactive) | 20 µM (inactive) | > 100 µM (inactive) | 51.4 µM (inactive) | 36.8 µM (inactive) | > 100 µM (inactive) | –
2 | COC(=O)c1cc(C)ccc1CC(Cc1ccc(C)cc1)C(=O)OC (stereo not given) | 31 µM (inactive) | 7.71 µM (inactive) | 10.9 | 27.3 µM (inactive) | 7.06 µM (inactive) | 10.5 µM (inactive) | 17.1 µM (inactive) | > 100 µM (inactive) | 30.8 µM (inactive) | 10.8 µM (inactive) | 31.9 µM (inactive) | > 100 µM (inactive) | 5.77 µM (inactive) | 3.18 µM (inactive) | 3.48 µM (inactive) | 37.8 µM (inactive) | 42.1 µM (inactive) | 36.6 µM (inactive) | > 100 µM (inactive) | –
3 | CCOC(=O)C(C)c1nc2cc(F)c(N3CCOCC3)cc2[nH]c1=O (stereo not given) | > 100 µM (inactive) | > 100 µM (inactive) | > 100 | > 100 µM (inactive) | > 100 µM (inactive) | > 100 µM (inactive) | > 100 µM (inactive) | > 100 µM (inactive) | 51.9 µM (inactive) | > 100 µM (inactive) | > 100 µM (inactive) | > 100 µM (inactive) | 83.6 µM (inactive) | > 100 µM (inactive) | 54.1 µM (inactive) | 71.9 µM (inactive) | > 100 µM (inactive) | > 100 µM (inactive) | > 100 µM (inactive) | –
4 | Nc1ccccc1CCN1CCN(CCCc2ccccc2)CC1 | 72.4 µM (inactive) | 25.7 µM (inactive) | 33.2 | 45.4 µM (inactive) | 39.2 µM (inactive) | 34.7 µM (inactive) | 27.3 µM (inactive) | > 100 µM (inactive) | 20.8 µM (inactive) | 52.1 µM (inactive) | 61.1 µM (inactive) | > 100 µM (inactive) | 27.8 µM (inactive) | 27.8 µM (inactive) | 17.9 µM (inactive) | 95.9 µM (inactive) | > 100 µM (inactive) | 57.3 µM (inactive) | 91.2 µM (inactive) | –
5 | Cc1cc2c(c3c1c1ccccc1n3C)C(=O)c1ccccc1C2=O | – | – | > 100 | > 100 µM (inactive) | 75.3 µM (inactive) | > 100 µM (inactive) | > 100 µM (inactive) | > 100 µM (inactive) | – | > 100 µM (inactive) | – | > 100 µM (inactive) | > 100 µM (inactive) | 48 µM (inactive) | > 100 µM (inactive) | – | > 100 µM (inactive) | – | > 100 µM (inactive) | > 100 µM (inactive)
6 | CCCCCCCCCCCCCS(=O)(=O)O | – | – | > 100 | > 100 µM (inactive) | > 100 µM (inactive) | > 100 µM (inactive) | > 100 µM (inactive) | > 100 µM (inactive) | – | > 100 µM (inactive) | – | > 100 µM (inactive) | – | – | > 100 µM (inactive) | – | > 100 µM (inactive) | – | > 100 µM (inactive) | > 100 µM (inactive)
7 | COC(=O)CN1CCN(c2cccc3c2CCCC3)CC1 | 40.5 µM (inactive) | 35.5 µM (inactive) | > 100 | > 100 µM (inactive) | 67.6 µM (inactive) | 32.4 µM (inactive) | 92.3 µM (inactive) | > 100 µM (inactive) | 98.2 µM (inactive) | 43.9 µM (inactive) | 71.9 µM (inactive) | 72.9 µM (inactive) | 25.1 µM (inactive) | 90.2 µM (inactive) | 23.2 µM (inactive) | 64.6 µM (inactive) | > 100 µM (inactive) | > 100 µM (inactive) | 93.8 µM (inactive) | –
8 | CCOc1cc(C(=O)O)c2c(ccc3ccc(OC)c(OC)c32)c1OC | > 100 µM (inactive) | > 100 µM (inactive) | > 100 | > 100 µM (inactive) | > 100 µM (inactive) | > 100 µM (inactive) | > 100 µM (inactive) | > 100 µM (inactive) | > 100 µM (inactive) | > 100 µM (inactive) | > 100 µM (inactive) | > 100 µM (inactive) | > 100 µM (inactive) | > 100 µM (inactive) | > 100 µM (inactive) | > 100 µM (inactive) | > 100 µM (inactive) | > 100 µM (inactive) | > 100 µM (inactive) | –
